{"source": "patent US20210378992A1", "about": "“METHODS FOR TREATING A SUBTYPE OF SMALL CELL LUNG CANCER” (Auransa Inc., priority 2018, published 2021)", "key": {"[1]": {"system": "human small cell lung cancer sample LU5243", "experiment": "In vivo patient derived xenograft (PDX) study, LU5243 (predicted responder)", "design": "species or system mice", "details": "pentamidine 10 or 20 mg/kg IP QD, FIGS. 1 and 2", "protocol": "50 mice were enrolled in the study. 25 mice were randomly allocated to each of two human small cell lung cancer tumor models: LU5181 and LU5243. […] However, expression profile of human LU5243, another SCLC tumor sample, successfully matched with the predicted gene expression signature for pentamidine (e.g., as described above, and in Table 1 and Table 2).\nRandomization of the 50 mice was performed using the multi-task method in the Study Log software on day 0. Average tumor volume (mm^3) for each group ±SD at randomization was as follows. […]\nTumor cryovials containing tumor cells were thawed and prepared for inoculation into mice. Cells were washed in PBS, counted, and re-suspended in cold PBS at concentrations of 100,000 viable cells/100 μL. […]\nMice were monitored weekly for palpable tumors, or any changes in appearance or behavior. Once tumors were palpable, they were measured twice a week using calipers. Tumor volume was calculated using the following equation (longest diameter×shortest diameter^2)/2.\nStock solution of pentamidine was made in water at 10 mg/mL. Amount needed for dosing for one week was calculated and was diluted with PBS. […]\nBody weight was measured twice a week. […]\nFor all animals, tumors were collected, weighed, weight recorded and snap frozen. […]"}, "[2]": {"system": "biomarker genes of Tables 1, 2 and 3 (INSM1, GADD45G, C1QL1, STAT6, SMAD3, RNF43 and others)", "experiment": "Biomarker gene expression after dosing of pentamidine in human SCLC PDX study", "assay_type": "in vivo, mice", "details": "SCLC subtype sensitive to pentamidine", "text": "A computational model was constructed to identify patient subpopulations of small cell lung cancer, leveraging data from 5 different datasets of treatment-naïve human small cell lung cancer biopsies (Gene Expression Omnibus identifiers GSE30219, GSE43346, GSE50451; George et al. (2015) Nature 524:47-53; and Rudin et al. (2012) Nat. Genet. 44:1111-1116). Pentamidine was a strong match to one SCLC subpopulation identified by the model. Potential biomarker genes for each subpopulation were discovered using another modeling approach. […] Among the 41 genes (see Tables 1, 2 and 3), the following six genes were selected for further study: INSM1, GADD45G, C1QL1, STAT6, SMAD3 and RNF43.\nFor all animals, tumors were collected, weighed, weight recorded and snap frozen. Blood for plasma isolation was taken from each animal at 4 hours after dosing. All samples collected from this study were stored in −80° C. For Group01-03, any time that an animal has to be taken down prior to normal end of study termination, the animal was dosed and sampled 4 hours after the dose was given. For group04, tumors were collected 4 hours after the third dose was given. Tumors were weighed and snap-frozen."}}}
{"smiles": "N=C(N)c1ccc(OCCCCCOc2ccc(C(=N)N)cc2)cc1", "note": "[Pentamidine, 1,5-Bis(4-amidinophenoxy)pentane]", "values": [{"measurement": "efficacy in PDX model (tumor volume)", "setting": "[1]", "result": "significant efficacy"}, {"measurement": "expression of genes in Table 1 (INSM1, GADD45G, C1QL1) upon treatment with pentamidine", "setting": "[2]; high expression biomarkers", "result": "repressed nearly to normal levels"}, {"measurement": "expression of genes in Table 2 (STAT6, SMAD3, RNF43) upon treatment with pentamidine", "setting": "[2]; low expression biomarkers", "result": "increased nearly to normal levels"}]}
